{"source": "the CheMixHub viscosity set", "test": "xn = mol fraction of the nth substance listed", "note": "± gives the uncertainty stated by the source.", "data": [{"smiles": "C=CC(C)(O)CCC=C(C)C", "note": "(centres undefined) + COC(C)(C)C", "values": [{"measurement": "viscosity", "setting": "298.15 K, 101.33 kPa, x2 = 0.0756", "value": "3.692 ± 0.027", "unit": "mPa·s"}, {"measurement": "viscosity", "setting": "298.15 K, 101.33 kPa, x2 = 0.1208", "value": "3.314 ± 0.024", "unit": "mPa·s"}, {"measurement": "viscosity", "setting": "298.15 K, 101.33 kPa, x2 = 0.1819", "value": "2.856 ± 0.02", "unit": "mPa·s"}, {"measurement": "viscosity", "setting": "298.15 K, 101.33 kPa, x2 = 0.3063", "value": "2.093 ± 0.015", "unit": "mPa·s"}, {"measurement": "viscosity", "setting": "298.15 K, 101.33 kPa, x2 = 0.3763", "value": "1.761 ± 0.012", "unit": "mPa·s"}, {"measurement": "viscosity", "setting": "298.15 K, 101.33 kPa, x2 = 0.5129", "value": "1.25 ± 0.0089", "unit": "mPa·s"}, {"measurement": "viscosity", "setting": "298.15 K, 101.33 kPa, x2 = 0.5989", "value": "0.9982 ± 0.0074", "unit": "mPa·s"}, {"measurement": "viscosity", "setting": "298.15 K, 101.33 kPa, x2 = 0.7222", "value": "0.7171 ± 0.0061", "unit": "mPa·s"}, {"measurement": "viscosity", "setting": "298.15 K, 101.33 kPa, x2 = 0.8148", "value": "0.5569 ± 0.0054", "unit": "mPa·s"}, {"measurement": "viscosity", "setting": "298.15 K, 101.33 kPa, x2 = 0.9106", "value": "0.4273 ± 0.0049", "unit": "mPa·s"}, {"measurement": "viscosity", "setting": "298.15 K, 101.33 kPa, x2 = 0.9692", "value": "0.3605 ± 0.0047", "unit": "mPa·s"}]}, {"smiles": "CC12CC3CC(C)(C1)CC(C)(C3)C2", "note": "+ CCCCCCCCC", "values": [{"measurement": "viscosity", "setting": "293.15 K, 100 kPa, x1 = 0.1012", "value": "0.831 ± 0.034", "unit": "mPa·s"}, {"measurement": "viscosity", "setting": "293.15 K, 100 kPa, x1 = 0.2132", "value": "0.936 ± 0.038", "unit": "mPa·s"}, {"measurement": "viscosity", "setting": "293.15 K, 100 kPa, x1 = 0.3009", "value": "1.021 ± 0.041", "unit": "mPa·s"}, {"measurement": "viscosity", "setting": "293.15 K, 100 kPa, x1 = 0.3978", "value": "1.11 ± 0.045", "unit": "mPa·s"}, {"measurement": "viscosity", "setting": "293.15 K, 100 kPa, x1 = 0.4998", "value": "1.231 ± 0.05", "unit": "mPa·s"}, {"measurement": "viscosity", "setting": "293.15 K, 100 kPa, x1 = 0.6007", "value": "1.395 ± 0.057", "unit": "mPa·s"}, {"measurement": "viscosity", "setting": "293.15 K, 100 kPa, x1 = 0.6969", "value": "1.593 ± 0.065", "unit": "mPa·s"}, {"measurement": "viscosity", "setting": "293.15 K, 100 kPa, x1 = 0.7984", "value": "1.852 ± 0.075", "unit": "mPa·s"}, {"measurement": "viscosity", "setting": "293.15 K, 100 kPa, x1 = 0.8985", "value": "2.201 ± 0.089", "unit": "mPa·s"}, {"measurement": "viscosity", "setting": "298.15 K, 100 kPa, x1 = 0.1012", "value": "0.775 ± 0.032", "unit": "mPa·s"}, {"measurement": "viscosity", "setting": "298.15 K, 100 kPa, x1 = 0.2132", "value": "0.87 ± 0.035", "unit": "mPa·s"}, {"measurement": "viscosity", "setting": "298.15 K, 100 kPa, x1 = 0.3009", "value": "0.95 ± 0.039", "unit": "mPa·s"}, {"measurement": "viscosity", "setting": "298.15 K, 100 kPa, x1 = 0.3978", "value": "1.028 ± 0.042", "unit": "mPa·s"}, {"measurement": "viscosity", "setting": "298.15 K, 100 kPa, x1 = 0.4998", "value": "1.135 ± 0.046", "unit": "mPa·s"}, {"measurement": "viscosity", "setting": "298.15 K, 100 kPa, x1 = 0.6007", "value": "1.282 ± 0.052", "unit": "mPa·s"}, {"measurement": "viscosity", "setting": "298.15 K, 100 kPa, x1 = 0.6969", "value": "1.458 ± 0.059", "unit": "mPa·s"}, {"measurement": "viscosity", "setting": "298.15 K, 100 kPa, x1 = 0.7984", "value": "1.685 ± 0.069", "unit": "mPa·s"}, {"measurement": "viscosity", "setting": "298.15 K, 100 kPa, x1 = 0.8985", "value": "1.995 ± 0.081", "unit": "mPa·s"}, {"measurement": "viscosity", "setting": "303.15 K, 100 kPa, x1 = 0.1012", "value": "0.726 ± 0.03", "unit": "mPa·s"}, {"measurement": "viscosity", "setting": "303.15 K, 100 kPa, x1 = 0.2132", "value": "0.812 ± 0.033", "unit": "mPa·s"}, {"measurement": "viscosity", "setting": "303.15 K, 100 kPa, x1 = 0.3009", "value": "0.883 ± 0.036", "unit": "mPa·s"}, {"measurement": "viscosity", "setting": "303.15 K, 100 kPa, x1 = 0.3978", "value": "0.952 ± 0.039", "unit": "mPa·s"}, {"measurement": "viscosity", "setting": "303.15 K, 100 kPa, x1 = 0.4998", "value": "1.052 ± 0.043", "unit": "mPa·s"}, {"measurement": "viscosity", "setting": "303.15 K, 100 kPa, x1 = 0.6007", "value": "1.183 ± 0.048", "unit": "mPa·s"}, {"measurement": "viscosity", "setting": "303.15 K, 100 kPa, x1 = 0.6969", "value": "1.342 ± 0.055", "unit": "mPa·s"}, {"measurement": "viscosity", "setting": "303.15 K, 100 kPa, x1 = 0.7984", "value": "1.544 ± 0.063", "unit": "mPa·s"}, {"measurement": "viscosity", "setting": "303.15 K, 100 kPa, x1 = 0.8985", "value": "1.818 ± 0.074", "unit": "mPa·s"}, {"measurement": "viscosity", "setting": "308.15 K, 100 kPa, x1 = 0.1012", "value": "0.682 ± 0.028", "unit": "mPa·s"}, {"measurement": "viscosity", "setting": "308.15 K, 100 kPa, x1 = 0.2132", "value": "0.76 ± 0.031", "unit": "mPa·s"}, {"measurement": "viscosity", "setting": "308.15 K, 100 kPa, x1 = 0.3009", "value": "0.825 ± 0.034", "unit": "mPa·s"}, {"measurement": "viscosity", "setting": "308.15 K, 100 kPa, x1 = 0.3978", "value": "0.889 ± 0.036", "unit": "mPa·s"}, {"measurement": "viscosity", "setting": "308.15 K, 100 kPa, x1 = 0.4998", "value": "0.978 ± 0.04", "unit": "mPa·s"}, {"measurement": "viscosity", "setting": "308.15 K, 100 kPa, x1 = 0.6007", "value": "1.095 ± 0.045", "unit": "mPa·s"}, {"measurement": "viscosity", "setting": "308.15 K, 100 kPa, x1 = 0.6969", "value": "1.238 ± 0.05", "unit": "mPa·s"}, {"measurement": "viscosity", "setting": "308.15 K, 100 kPa, x1 = 0.7984", "value": "1.418 ± 0.058", "unit": "mPa·s"}, {"measurement": "viscosity", "setting": "308.15 K, 100 kPa, x1 = 0.8985", "value": "1.662 ± 0.068", "unit": "mPa·s"}, {"measurement": "viscosity", "setting": "313.15 K, 100 kPa, x1 = 0.1012", "value": "0.639 ± 0.026", "unit": "mPa·s"}, {"measurement": "viscosity", "setting": "313.15 K, 100 kPa, x1 = 0.2132", "value": "0.711 ± 0.029", "unit": "mPa·s"}, {"measurement": "viscosity", "setting": "313.15 K, 100 kPa, x1 = 0.3009", "value": "0.771 ± 0.031", "unit": "mPa·s"}, {"measurement": "viscosity", "setting": "313.15 K, 100 kPa, x1 = 0.3978", "value": "0.831 ± 0.034", "unit": "mPa·s"}, {"measurement": "viscosity", "setting": "313.15 K, 100 kPa, x1 = 0.4998", "value": "0.914 ± 0.037", "unit": "mPa·s"}, {"measurement": "viscosity", "setting": "313.15 K, 100 kPa, x1 = 0.6007", "value": "1.022 ± 0.042", "unit": "mPa·s"}, {"measurement": "viscosity", "setting": "313.15 K, 100 kPa, x1 = 0.6969", "value": "1.147 ± 0.047", "unit": "mPa·s"}, {"measurement": "viscosity", "setting": "313.15 K, 100 kPa, x1 = 0.7984", "value": "1.309 ± 0.053", "unit": "mPa·s"}, {"measurement": "viscosity", "setting": "313.15 K, 100 kPa, x1 = 0.8985", "value": "1.526 ± 0.062", "unit": "mPa·s"}, {"measurement": "viscosity", "setting": "318.15 K, 100 kPa, x1 = 0.1012", "value": "0.603 ± 0.025", "unit": "mPa·s"}, {"measurement": "viscosity", "setting": "318.15 K, 100 kPa, x1 = 0.2132", "value": "0.67 ± 0.027", "unit": "mPa·s"}, {"measurement": "viscosity", "setting": "318.15 K, 100 kPa, x1 = 0.3009", "value": "0.724 ± 0.029", "unit": "mPa·s"}, {"measurement": "viscosity", "setting": "318.15 K, 100 kPa, x1 = 0.3978", "value": "0.781 ± 0.032", "unit": "mPa·s"}, {"measurement": "viscosity", "setting": "318.15 K, 100 kPa, x1 = 0.4998", "value": "0.859 ± 0.035", "unit": "mPa·s"}, {"measurement": "viscosity", "setting": "318.15 K, 100 kPa, x1 = 0.6007", "value": "0.954 ± 0.039", "unit": "mPa·s"}, {"measurement": "viscosity", "setting": "318.15 K, 100 kPa, x1 = 0.6969", "value": "1.067 ± 0.043", "unit": "mPa·s"}, {"measurement": "viscosity", "setting": "318.15 K, 100 kPa, x1 = 0.7984", "value": "1.212 ± 0.049", "unit": "mPa·s"}, {"measurement": "viscosity", "setting": "318.15 K, 100 kPa, x1 = 0.8985", "value": "1.408 ± 0.057", "unit": "mPa·s"}, {"measurement": "viscosity", "setting": "323.15 K, 100 kPa, x1 = 0.1012", "value": "0.569 ± 0.023", "unit": "mPa·s"}, {"measurement": "viscosity", "setting": "323.15 K, 100 kPa, x1 = 0.2132", "value": "0.633 ± 0.026", "unit": "mPa·s"}, {"measurement": "viscosity", "setting": "323.15 K, 100 kPa, x1 = 0.3009", "value": "0.681 ± 0.028", "unit": "mPa·s"}, {"measurement": "viscosity", "setting": "323.15 K, 100 kPa, x1 = 0.3978", "value": "0.737 ± 0.03", "unit": "mPa·s"}, {"measurement": "viscosity", "setting": "323.15 K, 100 kPa, x1 = 0.4998", "value": "0.807 ± 0.033", "unit": "mPa·s"}, {"measurement": "viscosity", "setting": "323.15 K, 100 kPa, x1 = 0.6007", "value": "0.894 ± 0.036", "unit": "mPa·s"}, {"measurement": "viscosity", "setting": "323.15 K, 100 kPa, x1 = 0.6969", "value": "0.996 ± 0.04", "unit": "mPa·s"}, {"measurement": "viscosity", "setting": "323.15 K, 100 kPa, x1 = 0.7984", "value": "1.13 ± 0.046", "unit": "mPa·s"}, {"measurement": "viscosity", "setting": "323.15 K, 100 kPa, x1 = 0.8985", "value": "1.304 ± 0.053", "unit": "mPa·s"}]}]}
